The record followed here is publication PMC5540273, “Progress towards a public chemogenomic set for protein kinases and a call for contributions” (PLoS ONE, 2017).

Common to all, as to test: KINOMEscan competition binding
Assay [1] concerns the target FES (Homo sapiens, UniProt P07332). As to conditions: read-out: %Inh FES.
For assay [2], the target named is HIPK1 (Homo sapiens, UniProt Q86Z02). To be noted: read-out: %Inh HIPK1.
Assay [3] addresses FGR (Homo sapiens, UniProt P09769). To be noted: read-out: %Inh FGR.
Assay [4] addresses ALK (Homo sapiens, UniProt Q9UM73). As to conditions: read-out: %Inh ALK.
The target in assay [5] is T1, GRK1 (Homo sapiens, UniProt Q15835).
T1 sequence (Q15835 1-563): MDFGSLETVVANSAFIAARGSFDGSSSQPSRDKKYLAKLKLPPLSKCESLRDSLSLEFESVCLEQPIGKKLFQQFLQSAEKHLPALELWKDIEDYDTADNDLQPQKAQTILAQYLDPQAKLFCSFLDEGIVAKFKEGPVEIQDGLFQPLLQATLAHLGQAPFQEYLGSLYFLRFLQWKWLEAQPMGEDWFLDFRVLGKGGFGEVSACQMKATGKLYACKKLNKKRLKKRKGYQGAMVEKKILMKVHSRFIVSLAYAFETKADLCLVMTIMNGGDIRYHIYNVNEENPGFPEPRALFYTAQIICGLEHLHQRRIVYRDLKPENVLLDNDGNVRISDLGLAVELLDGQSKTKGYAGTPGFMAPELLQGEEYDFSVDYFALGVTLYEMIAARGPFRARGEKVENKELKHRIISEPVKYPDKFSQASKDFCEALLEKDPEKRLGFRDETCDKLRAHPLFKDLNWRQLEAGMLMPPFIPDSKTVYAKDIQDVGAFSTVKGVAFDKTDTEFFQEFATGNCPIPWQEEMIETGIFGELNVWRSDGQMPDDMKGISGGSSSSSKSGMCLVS
To be noted: read-out: %Inh GRK1.

Assay [6] concerns the target T2, HASPIN (Homo sapiens, UniProt Q8TF76).
T2 sequence (Q8TF76 1-798): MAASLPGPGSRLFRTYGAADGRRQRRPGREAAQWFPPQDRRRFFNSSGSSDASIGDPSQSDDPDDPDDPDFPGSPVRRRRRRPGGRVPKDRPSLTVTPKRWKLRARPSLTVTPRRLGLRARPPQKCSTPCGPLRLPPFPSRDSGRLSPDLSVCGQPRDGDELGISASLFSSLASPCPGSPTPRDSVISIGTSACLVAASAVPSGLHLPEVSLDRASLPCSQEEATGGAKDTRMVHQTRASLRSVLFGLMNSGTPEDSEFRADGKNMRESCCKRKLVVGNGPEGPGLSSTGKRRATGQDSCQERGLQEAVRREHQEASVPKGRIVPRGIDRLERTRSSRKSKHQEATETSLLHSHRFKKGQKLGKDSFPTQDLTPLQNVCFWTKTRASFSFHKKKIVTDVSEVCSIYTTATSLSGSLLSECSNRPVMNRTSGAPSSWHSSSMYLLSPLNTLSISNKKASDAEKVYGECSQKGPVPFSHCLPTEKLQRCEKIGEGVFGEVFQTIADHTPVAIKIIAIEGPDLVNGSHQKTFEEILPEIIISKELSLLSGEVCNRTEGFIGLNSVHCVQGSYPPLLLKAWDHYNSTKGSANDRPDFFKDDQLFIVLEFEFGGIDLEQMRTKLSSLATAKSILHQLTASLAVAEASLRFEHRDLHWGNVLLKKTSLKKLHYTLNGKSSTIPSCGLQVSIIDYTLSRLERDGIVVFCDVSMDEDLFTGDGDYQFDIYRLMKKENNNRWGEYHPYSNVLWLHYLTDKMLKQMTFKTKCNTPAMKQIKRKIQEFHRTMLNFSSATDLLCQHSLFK
To be noted: read-out: %Inh HASPIN.

The target of assay [7] is CIT (Homo sapiens, UniProt O14578). As to conditions: read-out: %Inh CIT.
CIT, sequence (O14578 whole entry): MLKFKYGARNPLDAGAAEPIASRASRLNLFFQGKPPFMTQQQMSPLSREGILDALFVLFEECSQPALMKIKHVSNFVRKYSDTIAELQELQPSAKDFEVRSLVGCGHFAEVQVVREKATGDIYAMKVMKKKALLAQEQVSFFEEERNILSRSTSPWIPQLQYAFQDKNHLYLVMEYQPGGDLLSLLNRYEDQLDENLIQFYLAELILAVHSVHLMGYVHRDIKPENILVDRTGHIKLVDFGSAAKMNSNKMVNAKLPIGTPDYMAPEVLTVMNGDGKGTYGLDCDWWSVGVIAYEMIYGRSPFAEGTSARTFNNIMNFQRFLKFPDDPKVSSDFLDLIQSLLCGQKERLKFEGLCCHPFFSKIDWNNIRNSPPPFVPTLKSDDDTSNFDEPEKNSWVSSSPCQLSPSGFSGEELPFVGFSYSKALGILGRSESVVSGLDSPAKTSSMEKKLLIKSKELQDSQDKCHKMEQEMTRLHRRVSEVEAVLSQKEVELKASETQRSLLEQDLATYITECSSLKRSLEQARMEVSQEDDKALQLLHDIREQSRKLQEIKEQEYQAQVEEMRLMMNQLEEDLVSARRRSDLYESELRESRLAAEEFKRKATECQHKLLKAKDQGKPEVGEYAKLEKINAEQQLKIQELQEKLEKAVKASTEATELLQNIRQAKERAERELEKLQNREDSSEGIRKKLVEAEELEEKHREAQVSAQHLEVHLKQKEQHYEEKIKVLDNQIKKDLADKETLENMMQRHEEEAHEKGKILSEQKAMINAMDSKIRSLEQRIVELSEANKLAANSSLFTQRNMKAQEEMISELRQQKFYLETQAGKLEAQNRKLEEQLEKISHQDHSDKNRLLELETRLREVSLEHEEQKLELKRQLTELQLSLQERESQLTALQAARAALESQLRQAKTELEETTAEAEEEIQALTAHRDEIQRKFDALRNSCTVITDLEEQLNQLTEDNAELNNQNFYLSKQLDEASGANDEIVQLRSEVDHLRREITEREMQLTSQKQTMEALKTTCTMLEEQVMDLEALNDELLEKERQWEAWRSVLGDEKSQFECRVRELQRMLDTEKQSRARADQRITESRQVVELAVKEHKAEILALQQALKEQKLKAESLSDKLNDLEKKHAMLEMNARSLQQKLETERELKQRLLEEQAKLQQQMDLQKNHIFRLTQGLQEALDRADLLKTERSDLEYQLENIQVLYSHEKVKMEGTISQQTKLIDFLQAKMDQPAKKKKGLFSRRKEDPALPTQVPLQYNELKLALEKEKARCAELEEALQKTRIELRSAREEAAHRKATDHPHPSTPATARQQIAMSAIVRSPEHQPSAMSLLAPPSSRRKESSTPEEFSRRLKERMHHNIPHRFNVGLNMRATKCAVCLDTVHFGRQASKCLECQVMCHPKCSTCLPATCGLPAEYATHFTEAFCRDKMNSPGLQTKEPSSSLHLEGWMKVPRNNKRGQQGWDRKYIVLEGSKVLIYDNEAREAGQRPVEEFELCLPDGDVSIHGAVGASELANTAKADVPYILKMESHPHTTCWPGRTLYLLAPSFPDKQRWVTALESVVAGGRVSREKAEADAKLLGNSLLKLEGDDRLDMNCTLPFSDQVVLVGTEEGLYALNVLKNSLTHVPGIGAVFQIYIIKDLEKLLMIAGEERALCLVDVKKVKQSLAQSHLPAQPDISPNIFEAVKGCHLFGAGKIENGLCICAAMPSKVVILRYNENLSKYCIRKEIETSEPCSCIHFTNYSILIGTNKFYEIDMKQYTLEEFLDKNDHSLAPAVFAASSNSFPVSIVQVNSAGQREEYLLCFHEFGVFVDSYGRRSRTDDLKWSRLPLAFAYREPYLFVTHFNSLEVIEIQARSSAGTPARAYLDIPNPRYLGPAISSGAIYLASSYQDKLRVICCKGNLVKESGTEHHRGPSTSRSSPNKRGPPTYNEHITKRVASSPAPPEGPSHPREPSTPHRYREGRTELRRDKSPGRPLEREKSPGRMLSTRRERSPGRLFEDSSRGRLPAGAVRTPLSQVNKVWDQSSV

FES, sequence (P07332 whole entry): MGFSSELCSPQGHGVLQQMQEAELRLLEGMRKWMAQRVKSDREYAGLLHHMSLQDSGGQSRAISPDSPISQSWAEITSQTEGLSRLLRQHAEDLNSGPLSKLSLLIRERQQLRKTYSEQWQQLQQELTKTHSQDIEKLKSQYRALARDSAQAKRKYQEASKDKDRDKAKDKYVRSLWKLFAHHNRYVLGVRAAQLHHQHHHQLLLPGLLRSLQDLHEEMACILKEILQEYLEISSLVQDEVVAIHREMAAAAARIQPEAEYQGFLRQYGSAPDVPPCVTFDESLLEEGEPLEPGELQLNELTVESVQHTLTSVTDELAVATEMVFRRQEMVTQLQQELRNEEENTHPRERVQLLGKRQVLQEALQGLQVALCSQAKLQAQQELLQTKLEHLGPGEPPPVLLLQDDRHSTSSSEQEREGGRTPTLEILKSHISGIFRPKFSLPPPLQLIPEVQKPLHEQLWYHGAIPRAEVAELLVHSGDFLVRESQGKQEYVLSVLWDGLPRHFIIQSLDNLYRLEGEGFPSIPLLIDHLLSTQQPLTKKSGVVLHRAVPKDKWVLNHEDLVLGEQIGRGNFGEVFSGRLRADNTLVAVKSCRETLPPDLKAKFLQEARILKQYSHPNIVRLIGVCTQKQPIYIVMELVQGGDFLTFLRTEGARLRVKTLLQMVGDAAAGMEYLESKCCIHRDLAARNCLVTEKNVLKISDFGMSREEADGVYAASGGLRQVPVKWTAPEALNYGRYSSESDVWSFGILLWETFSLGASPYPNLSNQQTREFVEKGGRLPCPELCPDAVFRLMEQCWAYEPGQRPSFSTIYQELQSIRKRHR
FGR, sequence (P09769 whole entry): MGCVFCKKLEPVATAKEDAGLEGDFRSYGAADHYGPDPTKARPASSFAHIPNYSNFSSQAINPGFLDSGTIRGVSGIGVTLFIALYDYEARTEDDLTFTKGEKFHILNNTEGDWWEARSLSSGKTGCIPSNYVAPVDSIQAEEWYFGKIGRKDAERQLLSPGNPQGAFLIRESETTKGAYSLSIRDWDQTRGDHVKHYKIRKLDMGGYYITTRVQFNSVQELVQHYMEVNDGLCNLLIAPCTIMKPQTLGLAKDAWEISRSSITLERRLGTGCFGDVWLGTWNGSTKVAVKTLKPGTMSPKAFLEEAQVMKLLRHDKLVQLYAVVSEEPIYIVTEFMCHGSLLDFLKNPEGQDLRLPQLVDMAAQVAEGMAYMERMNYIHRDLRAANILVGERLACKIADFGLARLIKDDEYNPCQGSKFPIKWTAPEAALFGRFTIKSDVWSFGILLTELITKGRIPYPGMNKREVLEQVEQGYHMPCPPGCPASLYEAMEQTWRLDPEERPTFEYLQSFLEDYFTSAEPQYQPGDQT
HIPK1, sequence (Q86Z02 whole entry): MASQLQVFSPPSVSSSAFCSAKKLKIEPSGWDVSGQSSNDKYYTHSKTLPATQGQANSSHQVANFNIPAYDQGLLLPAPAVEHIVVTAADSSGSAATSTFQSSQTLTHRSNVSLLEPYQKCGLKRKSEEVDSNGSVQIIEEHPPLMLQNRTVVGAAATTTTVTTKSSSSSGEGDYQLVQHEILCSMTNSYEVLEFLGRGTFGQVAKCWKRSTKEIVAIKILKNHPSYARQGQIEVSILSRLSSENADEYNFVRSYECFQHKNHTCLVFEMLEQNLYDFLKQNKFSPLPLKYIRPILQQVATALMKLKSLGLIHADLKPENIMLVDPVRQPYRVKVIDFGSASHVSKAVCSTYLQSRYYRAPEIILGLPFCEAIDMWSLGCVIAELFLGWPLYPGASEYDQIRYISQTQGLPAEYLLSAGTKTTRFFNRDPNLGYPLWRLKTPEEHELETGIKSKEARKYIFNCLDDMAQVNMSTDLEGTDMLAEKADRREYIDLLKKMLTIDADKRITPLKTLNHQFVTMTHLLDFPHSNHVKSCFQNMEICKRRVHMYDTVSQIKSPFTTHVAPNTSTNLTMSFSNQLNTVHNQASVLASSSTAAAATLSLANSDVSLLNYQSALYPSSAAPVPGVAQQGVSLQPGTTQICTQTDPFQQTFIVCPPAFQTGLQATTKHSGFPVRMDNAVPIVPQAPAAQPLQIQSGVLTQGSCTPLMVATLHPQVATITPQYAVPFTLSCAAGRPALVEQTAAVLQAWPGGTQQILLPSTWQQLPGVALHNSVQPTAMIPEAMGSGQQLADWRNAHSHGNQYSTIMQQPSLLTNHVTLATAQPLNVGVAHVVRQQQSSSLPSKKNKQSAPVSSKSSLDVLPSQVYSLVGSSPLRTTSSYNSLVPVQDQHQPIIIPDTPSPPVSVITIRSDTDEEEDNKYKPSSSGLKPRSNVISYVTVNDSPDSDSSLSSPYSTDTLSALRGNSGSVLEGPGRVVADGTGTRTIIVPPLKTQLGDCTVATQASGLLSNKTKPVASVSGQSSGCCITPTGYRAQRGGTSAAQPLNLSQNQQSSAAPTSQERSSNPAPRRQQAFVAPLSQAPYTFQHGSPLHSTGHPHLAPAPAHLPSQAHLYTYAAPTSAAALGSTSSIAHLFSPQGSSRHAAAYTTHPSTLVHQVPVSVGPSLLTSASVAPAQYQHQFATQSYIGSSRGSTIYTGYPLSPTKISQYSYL

As for `Cn1cc(-c2cnc(N)c3c(-c4ccc5c(c4)CCN5C(=O)Cc4ccccc4)csc23)cn1` [UNC10225012A], the inhibition at 1 µM in assay [1] was 14%; in assay [2], 21%; in assay [3], 75%; in assay [4] it was 0%; in assay [5] it was 0%; in assay [6] it was 0%. Besides, in assay [7], the inhibition at 1 µM is 0%.

With `CS(=O)(=O)Cc1ccc(Nc2nccc(-c3c(-c4cccc(NC(=O)C5CCCCC5)c4)nn4ncccc34)n2)cc1` [UNC10225159A], the inhibition at 1 µM in assay [1] was 0%; in assay [2], 5%; in assay [3] it was 27%; in assay [4] it was 29%; in assay [5] it was 0%; in assay [6], 17%. In assay [7], the inhibition at 1 µM turned out to be 10%.

Regarding `Cc1ccc(NC(=O)Nc2cccc(C(F)(F)F)c2)cc1` [UNC10225187A], the inhibition at 1 µM in assay [1] stood at 0%; in assay [2], 8%; in assay [3], 0%; in assay [4], 0%; in assay [5] it was 2%; in assay [6] it was 12%. The inhibition at 1 µM in assay [7] was 29%.

Turning to `COc1cccc(OC)c1C(=O)Nc1cccc(-c2nn3ccccc3c2-c2ccnc(Nc3cccc(F)c3)n2)c1` [UNC10225310A], the inhibition at 1 µM is 20% in assay [1]; 31% in assay [2]; 23% in assay [3]; 0% in assay [4]; 0% in assay [5]; 0% in assay [6]. Besides, the inhibition at 1 µM in assay [7] turned out to be 36%.

Turning to `O=c1cc(N2CCOCC2)nc2n(Cc3cccc(Cl)c3Cl)c(C3CC3)nn12` [UNC10225469A], the inhibition at 1 µM in assay [1] worked out at 15%; in assay [2], 16%; in assay [3], 9%; in assay [4], 0%; in assay [5], 0%; in assay [6], 0%. Further, the inhibition at 1 µM in assay [7] is 0%.
